Where two headings read alike, the source gives them in different places. Blank lines part the entries; values can stand above or below the compound they belong to.
Legend:
[1] = molecular target: T1, baculovirus-expressed ALK (Homo sapiens, UniProt Q9UM73); test: ALK Kinase Assay (ELISA-type, time-resolved fluorescence); format: biochemical
T1 construct: host or cells: baculovirus expression system
Outline: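 Wells were coated with phospholipase C-γ at 10 μg/mL in Tris-buffered saline. Adding 30 ng/ml enzyme started the reaction, which ran at 37° C for 15 minutes before Eu-N1 PT66 antibody detection. Percent inhibition versus log10 concentration gave IC50 by variable-slope fit.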

[2] = molecular target: T2, c-Met (cytoplasmic domain) (Homo sapiens, UniProt P08581); test: c-Met Kinase Assay (same methods as for ALK, with modifications); format: biochemical
T2 construct: 10 ng/mL c-Met (cytoplasmic domain, Invitrogen Corporation #PV3143); purchased Invitrogen Corporation PV3143
T2 sequence (P08581 956-1390 limits assumed): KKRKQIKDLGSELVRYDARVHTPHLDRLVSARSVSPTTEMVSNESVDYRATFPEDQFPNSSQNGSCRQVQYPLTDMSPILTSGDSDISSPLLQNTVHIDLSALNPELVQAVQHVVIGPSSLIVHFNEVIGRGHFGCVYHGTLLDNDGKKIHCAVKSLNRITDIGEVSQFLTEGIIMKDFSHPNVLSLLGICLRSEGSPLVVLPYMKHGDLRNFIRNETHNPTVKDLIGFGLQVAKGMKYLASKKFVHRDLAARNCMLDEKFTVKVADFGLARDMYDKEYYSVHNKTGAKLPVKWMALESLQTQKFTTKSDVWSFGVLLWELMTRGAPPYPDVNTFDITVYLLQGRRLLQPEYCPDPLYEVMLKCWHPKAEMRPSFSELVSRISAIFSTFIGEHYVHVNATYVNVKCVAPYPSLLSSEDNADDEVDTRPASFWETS
Outline: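 IC50 values were fitted by variable-slope sigmoidal regression of percent inhibition against log compound concentration. Phosphorylation was read with Eu-N1 PT66 antibody after a 15 min, 37 °C reaction. The reaction was initiated with 10 ng/mL c-Met cytoplasmic domain on wells coated with 10 μg/mL PLC-γ in TBS.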

[3] = 1 μM ATP (Km level), read-out: ALK Activity (ALK Kinase Inhibition, IC50)
[4] = 1 μM ATP (Km level), read-out: cMet Activity (c-Met Kinase Inhibition, IC50)
[5] = ALK kinase inhibition, 1 μM ATP (Km level), read-out: ALK Activity
[6] = c-Met kinase inhibition, 1 μM ATP (Km level), read-out: cMet Activity
[7] = 1 μM ATP (Km level), 30 ng/ml ALK, 37° C., 15 minutes, read-out: ALK Activity (ALK kinase inhibition, IC50 class)
[8] = 1 μM ATP (Km level), 10 ng/mL c-Met, read-out: cMet Activity (c-Met kinase inhibition, IC50 class)
[9] = ALK kinase inhibition, 1 μM ATP, read-out: ALK Activity
[10] = c-Met kinase inhibition, 1 μM ATP, read-out: cMet Activity

T1 sequence (Q9UM73 19-1620): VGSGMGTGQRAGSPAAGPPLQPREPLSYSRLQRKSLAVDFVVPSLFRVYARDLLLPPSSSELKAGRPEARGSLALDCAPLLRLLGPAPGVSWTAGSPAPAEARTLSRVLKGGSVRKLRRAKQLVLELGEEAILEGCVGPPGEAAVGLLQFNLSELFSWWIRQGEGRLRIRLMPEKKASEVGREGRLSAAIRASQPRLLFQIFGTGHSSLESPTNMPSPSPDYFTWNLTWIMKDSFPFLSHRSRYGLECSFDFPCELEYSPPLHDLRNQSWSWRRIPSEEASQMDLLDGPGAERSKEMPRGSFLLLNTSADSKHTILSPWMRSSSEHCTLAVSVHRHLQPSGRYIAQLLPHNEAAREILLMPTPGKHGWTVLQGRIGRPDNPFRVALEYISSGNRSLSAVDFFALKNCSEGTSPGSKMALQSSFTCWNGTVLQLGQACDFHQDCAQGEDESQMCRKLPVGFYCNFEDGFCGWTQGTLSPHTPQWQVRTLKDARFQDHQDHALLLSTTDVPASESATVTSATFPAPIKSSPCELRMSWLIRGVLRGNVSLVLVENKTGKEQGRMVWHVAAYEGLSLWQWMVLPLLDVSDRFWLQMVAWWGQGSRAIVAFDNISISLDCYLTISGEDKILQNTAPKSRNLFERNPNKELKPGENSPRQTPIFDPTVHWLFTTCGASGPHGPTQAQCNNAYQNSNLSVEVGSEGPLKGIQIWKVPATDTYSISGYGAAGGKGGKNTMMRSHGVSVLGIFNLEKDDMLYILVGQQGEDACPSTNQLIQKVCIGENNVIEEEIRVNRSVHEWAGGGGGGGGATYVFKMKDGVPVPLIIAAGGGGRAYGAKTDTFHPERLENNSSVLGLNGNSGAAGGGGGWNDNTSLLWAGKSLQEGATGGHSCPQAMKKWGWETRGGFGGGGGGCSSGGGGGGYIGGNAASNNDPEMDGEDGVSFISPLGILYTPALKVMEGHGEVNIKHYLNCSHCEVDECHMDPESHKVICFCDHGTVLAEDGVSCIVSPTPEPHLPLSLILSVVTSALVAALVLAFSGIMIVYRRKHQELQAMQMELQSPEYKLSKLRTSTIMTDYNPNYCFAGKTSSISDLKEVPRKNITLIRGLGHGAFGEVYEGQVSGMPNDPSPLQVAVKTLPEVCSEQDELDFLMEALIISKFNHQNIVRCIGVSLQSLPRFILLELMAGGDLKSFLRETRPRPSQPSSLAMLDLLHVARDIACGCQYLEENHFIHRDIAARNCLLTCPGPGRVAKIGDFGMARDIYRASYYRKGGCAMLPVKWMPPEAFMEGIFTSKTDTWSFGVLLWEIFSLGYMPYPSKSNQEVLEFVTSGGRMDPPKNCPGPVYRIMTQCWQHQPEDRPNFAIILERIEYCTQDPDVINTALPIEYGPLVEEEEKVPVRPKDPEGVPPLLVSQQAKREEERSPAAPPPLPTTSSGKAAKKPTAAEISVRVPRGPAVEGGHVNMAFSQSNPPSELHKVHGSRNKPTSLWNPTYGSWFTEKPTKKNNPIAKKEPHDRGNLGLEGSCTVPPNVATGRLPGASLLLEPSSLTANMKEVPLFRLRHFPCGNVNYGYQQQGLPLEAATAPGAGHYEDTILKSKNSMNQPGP

- IC50 [1, 3]: < 100 nM
- IC50 [2, 4]: 100 to 1000 nM
SMILES: COCCN1CCc2cc(Nc3ncc(Cl)c(Nc4ccccc4S(=O)(=O)N4CC[C@H](C)C4)n3)c(OC)cc2CC1 [Example 854, 5-Chloro-N(2)-[8-methoxy-3-(2-methoxy-ethyl)-2,3,4,5-tetrahydro-1H-benzo[d]azepin-7-yl]-N(4)-[2-((S)-3-methyl-pyrrolidine-1-sulfonyl)-phenyl]-pyrimidine-2,4-diamine]

- IC50 [1, 5]: 100 to 1000 nM
- IC50 [2, 6]: > 10000 nM
SMILES: CCN1CCc2c(Nc3ncc(Cl)c(Nc4ccccc4C(=O)NC)n3)ccc(OC)c2CC1 [Example 154, 2-[5-Chloro-2-(3-ethyl-9-methoxy-2,3,4,5-tetrahydro-1H-benzo[d]azepin-6-ylamino)-pyrimidin-4-ylamino]-N-methyl-benzamide]

- IC50 [1, 7]: 100 to 1000 nM
- IC50 [2, 8]: 1000 to 10000 nM
SMILES: COCCN1CCc2ccc(Nc3ncc(Cl)c(N[C@@H]4CCC[C@H](N(CC#N)S(C)(=O)=O)C4)n3)cc2CC1 (relative stereo) [Example 1386, rel-N-((1S,3R)-3-{5-Chloro-2-[3-(2-methoxy-ethyl)-2,3,4,5-tetrahydro-1H-benzo[d]azepin-7-ylamino]-pyrimidin-4-ylamino}-cyclohexyl)-N-cyanomethyl-methanesulfonamide]

- IC50 [1, 7]: < 100 nM
- IC50 [2, 8]: 100 to 1000 nM
SMILES: OC1CCc2ccc(Nc3ncc(Cl)c(Nc4ccccc4-n4cccn4)n3)cc2CC1 (stereo not shown) [Example 1035, 2-[5-Chloro-4-(2-pyrazol-1-yl-phenylamino)-pyrimidin-2-ylamino]-6,7,8,9-tetrahydro-5H-benzocyclohepten-7-ol]

- IC50 [1, 3]: < 100 nM
- IC50 [2, 4]: 1000 to 10000 nM
SMILES: CCN1C(=O)CNCc2cc(OC)c(Nc3ncc(Cl)c(Nc4ccccc4S(=O)(=O)C(C)C)n3)cc21 [Example 729, 8-{5-Chloro-4-[2-(propane-2-sulfonyl)-phenylamino]-pyrimidin-2-ylamino}-1-ethyl-7-methoxy-1,3,4,5-tetrahydro-benzo[e][1,4]diazepin-2-one]

- IC50 [1, 9]: 1000 to 10000 nM
- IC50 [2, 10]: < 100 nM
SMILES: CNC(=O)c1cc(F)cc(Cl)c1Nc1nc(Nc2ccc3c(c2)CCOC(=O)N3C)ncc1Cl [Example 1758, 3-Chloro-2-[5-chloro-2-(5-methyl-6-oxo-5,6,8,9-tetrahydro-7-oxa-5-aza-benzocyclohepten-2-ylamino)-pyrimidin-4-ylamino]-5-fluoro-N-methyl-benzamide]

- IC50 [1, 7]: < 100 nM
- IC50 [2, 8]: < 100 nM
SMILES: CCN1C(=O)CCC(C)(C)c2ccc(Nc3ncc(Cl)c(Nc4ccccc4S(=O)(=O)C(C)C)n3)cc21 [Example 1243, 8-{5-Chloro-4-[2-(propane-2-sulfonyl)-phenylamino]-pyrimidin-2-ylamino}-1-ethyl-5,5-dimethyl-1,3,4,5-tetrahydro-1-benzazepin-2-one]

- IC50 [1, 9]: < 100 nM
- IC50 [2, 10]: 100 to 1000 nM
SMILES: CN1C(=O)OCCc2cc(Nc3ncc(Cl)c(Nc4ccccc4-n4cccn4)n3)ccc21 [Example 1766, 2-[5-Chloro-4-(2-pyrazol-1-yl-phenylamino)-pyrimidin-2-ylamino]-5-methyl-8,9-dihydro-5H-7-oxa-5-aza-benzocyclohepten-6-one]

- IC50 [1, 9]: 1000 to 10000 nM
- IC50 [2, 10]: < 100 nM
SMILES: CN1C(=O)OCCc2cc(Nc3ncc(Cl)c(Nc4c(F)cccc4OCC(O)CO)n3)ccc21 (stereo not shown) [Example 1717, 2-{5-Chloro-4-[2-(2,3-dihydroxy-propoxy)-6-fluoro-phenylamino]-pyrimidin-2-ylamino}-5-methyl-8,9-dihydro-5H-7-oxa-5-aza-benzocyclohepten-6-one]

- IC50 [1, 5]: < 100 nM
- IC50 [2, 6]: > 10000 nM
SMILES: CCN1C(=O)C(C)(C)CCc2c1ccc(Nc1ncc(Cl)c(NC3C4C=CC(C4)C3C(N)=O)n1)c2OC (stereo not drawn) [Example 142, (2-exo, 3-exo)-3-[5-Chloro-2-(1-ethyl-6-methoxy-3,3-dimethyl-2-oxo-2,3,4,5-tetrahydro-1H-benzo[b]azepin-7-ylamino)-pyrimidin-4-ylamino]-bicyclo[2.2.1]hept-5-ene-2-carboxylic acid amide]

- IC50 [1, 3]: 100 to 1000 nM
- IC50 [2, 4]: > 10000 nM
SMILES: COc1cc2c(cc1Nc1ncc(Cl)c(N[C@@H]3CCCC[C@H]3NS(C)(=O)=O)n1)N(C)C(=O)CN(CC1CC1)C2 [Example 746, N-{(1R,2R)-2-[5-Chloro-2-(4-cyclopropylmethyl-7-methoxy-1-methyl-2-oxo-2,3,4,5-tetrahydro-1H-benzo[e][1,4]diazepin-8-ylamino)-pyrimidin-4-ylamino]-cyclohexyl}-methanesulfonamide]

- IC50 [1, 7]: < 100 nM
- IC50 [2, 8]: > 10000 nM
SMILES: CNC(=O)CN1CCc2cc(Nc3ncc(Cl)c(N[C@@H]4CCCC[C@H]4NS(C)(=O)=O)n3)c(OC)cc2CC1 [Example 1112, 2-{7-[5-Chloro-4-((1R,2R)-2-methanesulfonylamino-cyclohexylamino)-pyrimidin-2-ylamino]-8-methoxy-1,2,4,5-tetrahydro-benzo[d]azepin-3-yl}-N-methyl-acetamide]

- IC50 [1, 7]: < 100 nM
- IC50 [2, 8]: > 10000 nM
SMILES: COc1cc2c(cc1Nc1ncc(Cl)c(Nc3ccc(N(C)C)cc3OC)n1)CCN(CC(=O)N(C)C)CC2 [Example 1166, 2-{7-[5-Chloro-4-(4-dimethylamino-2-methoxy-phenylamino)-pyrimidin-2-ylamino]-8-methoxy-1,2,4,5-tetrahydro-benzo[d]azepin-3-yl}-N,N-dimethyl-acetamide]

- IC50 [1, 3]: < 100 nM
- IC50 [2, 4]: > 10000 nM
SMILES: COc1cc2c(cc1Nc1ncc(Cl)c(Nc3ccc(Cl)cc3S(=O)(=O)N(C)C)n1)CCN(CCO)CC2 [Example 840, 5-Chloro-2-{5-chloro-2-[3-(2-hydroxy-ethyl)-8-methoxy-2,3,4,5-tetrahydro-1H-benzo[d]azepin-7-ylamino]-pyrimidin-4-ylamino}-N,N-dimethyl-benzenesulfonamide]

- IC50 [1, 5]: < 100 nM
- IC50 [2, 6]: > 10000 nM
SMILES: CNC(=O)[C@@H]1CCC[C@@H]1Nc1nc(Nc2cc3c(cc2OC)CCN(CC(=O)N(C)C)CC3)ncc1Cl (relative stereo) [Example 375, cis-2-[5-Chloro-2-(3-dimethylcarbamoylmethyl-8-methoxy-2,3,4,5-tetrahydro-1H-benzo[d]azepin-7-ylamino)-pyrimidin-4-ylamino]-cyclopentanecarboxylic acid methylamide]

- IC50 [1, 7]: 100 to 1000 nM
- IC50 [2, 8]: < 100 nM
SMILES: CNC(=O)c1cc(-c2cnn(C)c2)cc(F)c1Nc1nc(Nc2ccc3c(c2)N(C(C)=O)CCCO3)ncc1Cl [Example 1424, 2-[2-(9-Acetyl-6,7,8,9-tetrahydro-5-oxa-9-aza-benzocyclohepten-2-ylamino)-5-chloro-pyrimidin-4-ylamino]-3-fluoro-N-methyl-5-(1-methyl-1H-pyrazol-4-yl)-benzamide]

- IC50 [1, 5]: 100 to 1000 nM
- IC50 [2, 6]: 1000 to 10000 nM
SMILES: CCN1CCc2ccc(Nc3ncc(Cl)c(NCCC(=O)NC)n3)cc2CC1 [Example 211, 3-[5-Chloro-2-(3-ethyl-2,3,4,5-tetrahydro-1H-benzo[d]azepin-7-ylamino)-pyrimidin-4-ylamino]-N-methyl-propionamide]

- IC50 [1, 9]: < 100 nM
- IC50 [2, 10]: < 100 nM
SMILES: CNC(=O)c1cccc(F)c1Nc1nc(Nc2ccc3c(c2)N(C)CCCO3)ncc1Cl [Example 1707, 2-[5-Chloro-2-(9-methyl-6,7,8,9-tetrahydro-5-oxa-9-aza-benzocyclohepten-2-ylamino)-pyrimidin-4-ylamino]-3-fluoro-N-methyl-benzamide]

- IC50 [1, 9]: 100 to 1000 nM
- IC50 [2, 10]: > 10000 nM
SMILES: C#CCNC(=O)c1sccc1Nc1nc(Nc2ccc3c(c2)NC(=O)CCC3(C)C)ncc1Cl [Example 1623, 3-[5-Chloro-2-(5,5-dimethyl-2-oxo-2,3,4,5-tetrahydro-1H-benzo[b]azepin-8-ylamino)-pyrimidin-4-ylamino]-thiophene-2-carboxylic acid prop-2-ynylamide]

- IC50 [1, 5]: < 100 nM
- IC50 [2, 6]: > 10000 nM
SMILES: COCCN1C(=O)CCCc2c1ccc(Nc1ncc(Cl)c(Nc3ccc(N4CCOCC4)cc3OC)n1)c2OC [Example 127, 7-[5-Chloro-4-(2-methoxy-4-morpholin-4-yl-phenylamino)-pyrimidin-2-ylamino]-6-methoxy-1-(2-methoxy-ethyl)-1,3,4,5-tetrahydro-benzo[b]azepin-2-one]

- IC50 [1, 9]: < 100 nM
- IC50 [2, 10]: < 100 nM
SMILES: CNC(=O)c1cccc(F)c1Nc1nc(Nc2ccc3c(c2)OCCCN3C(=O)OC2CCCN(C)C2)ncc1Cl (stereo not shown) [Example 1438, 3-[5-Chloro-4-(2-fluoro-6-methylcarbamoyl-phenylamino)-pyrimidin-2-ylamino]-7,8-dihydro-6H-5-oxa-9-aza-benzocycloheptene-9-carboxylic acid 1-methyl-piperidin-3-yl ester]

- IC50 [1, 3]: < 100 nM
- IC50 [2, 4]: 1000 to 10000 nM
SMILES: CCN1CCN(CC)c2cc(Nc3ncc(Cl)c(Nc4ccc(OC)cc4-n4cccn4)n3)ccc2C1 [Example 732, 5-Chloro-N(2)-(1,4-diethyl-2,3,4,5-tetrahydro-1H-benzo[e][1,4]diazepin-8-yl)-N(4)-(4-methoxy-2-pyrazol-1-yl-phenyl)-pyrimidine-2,4-diamine]

- IC50 [1, 3]: 1000 to 10000 nM
- IC50 [2, 4]: > 10000 nM
SMILES: CNS(=O)(=O)c1ccccc1Nc1nc(Nc2cccc3c2N(C)CCN(C)C3=O)ncc1Cl [Example 543, 2-[5-Chloro-2-(1,4-dimethyl-5-oxo-2,3,4,5-tetrahydro-1H-benzo[e][1,4]diazepin-9-ylamino)-pyrimidin-4-ylamino]-N-methyl-benzenesulfonamide]
